Structures can show the parent of a compound that is named as a salt.
Columns and labels:
Type in all cases: cell-based, human
Conditions in all cases: 10 μM, 24 hours
[1] = test system: OE33P radio-sensitive oesophageal adenocarcinoma cells; assay: Surviving fraction (colony formation), OE33P
Experimental: (§1) OE33P radio-sensitive and OE33R radio-resistant oesophageal adenocarcinoma cells were used to test the effects of the compounds 11B HCl and 11B CC11 HCl on cell survival. Cells were maintained in RPMI media supplemented with 10% foetal calf serum, penicillin (100 U/ml) and streptomycin (100 μg/ml). Cells were seeded in 6 well plates and left to incubate for 24 hours. The media was replaced with solutions containing 10 μM of 11B HCl, 11B CC11 HCl or fresh media as a control. After 24 hours of treatment, media was replaced. When control colonies had grown sufficiently large, the media was disposed and the cells washed with PBS. The cells were fixed with methanol and stained with crystal violet. The surviving fraction, the ability of the cells to form colonies was then determined.
as §1, with “replaced and cells were subjected to 2Gy radiation.” for “replaced.”, “Surviving” for “The surviving”
OE33P radio-sensitive and OE33R radio-resistant oesophageal adenocarcinoma cells were used to test the effects of the compounds 11B HCl and 11B CC11 HCl on cell survival. Cells were maintained in RPMI media supplemented with 10% foetal calf serum, penicillin (100 U/ml) and streptomycin (100 μg/ml). Cells were seeded in 6 well plates and left to incubate for 24 hours. […] Surviving fraction, the ability of the cells to form colonies was then determined.

[2] = test system: OE33R radio-resistant oesophageal adenocarcinoma cells; assay: Quantification of glycolysis (ECAR, Seahorse), OE33R
Experimental: OE33P radio-sensitive and OE33R radio-resistant oesophageal adenocarcinoma cells were used to test the effects of compounds 11B HCl, 11B CC11 HCl, 11B CC16 HCl, 11B 471 and 11B 268 on glycolysis. Cells were maintained in RPMI media supplemented with 10% foetal calf serum, penicillin (100 U/ml) and streptomycin (100 μg/ml). A total of 11,000 or 13,000 cells, in 100 μl media, were seeded per well in 24 well plates and left to incubate for 24 hours, with an additional 150 μl media added after 5 hours. The media was replaced with solutions containing 10 μM of 11B HCl, […], 11B CC16 HCl, 11B 471, 11B 268 or fresh media as a control. Each drug had 6 replicates. After 24 hours of treatment, media was replaced with modified DMEM supplemented with 0.5 mM glucose. Rates of glycolysis were determined using Seahorse Biosciences metabolism technology. The media was disposed and the cells washed with PBS. The cells were fixed with 1% glutaraldehyde for 15 minutes and then stained with crystal violet for 30 minutes. The plates were blotted and dried overnight. The cells were resuspended with 1% TritonX-100 and shaken for 15 minutes. The absorbance was read on a spectrophotometer at 590 nm. Rates of glycolysis were then normalised to cell number.
OE33P radiosensitive oesophageal adenocarcinoma cells were used to test the effects of the compound 11B_ZHCl on glycolysis. Cells were maintained in RPMI media supplemented with 10% foetal calf serum, penicillin (100 U/ml) and streptomycin (100 μg/ml). A total of 11,000 cells, in 100 μl media, were seeded per well in 24 well plates and left to incubate for 24 hours, with an additional 150 μl media added after 5 hours. The media was replaced with solutions containing 10 μM of 11B_ZHCl or fresh media as a control. Each treatment had 6 replicates. After 24 hours of treatment, media was replaced with modified DMEM supplemented with 0.5 mM glucose. Rates of glycolysis were determined using Seahorse Biosciences metabolism technology. […] The absorbance was read on a spectrophotometer at 590 nm. […] No changes in ECAR were detected in OE33R treated cells.

[3] = test system: OE33R radio-resistant oesophageal adenocarcinoma cells; assay: Surviving fraction (colony formation), OE33R
Experimental: as §1
as §1, with “replaced and cells were subjected to 2Gy radiation.” for “replaced.”, “Surviving” for “The surviving”
as §1, with “hours. The cells were subjected to 2Gy irradiation and the media was” for “hours. The media was”, “crystal violet. Surviving fraction, the” for “crystal violet. The surviving fraction, the”

[4] = treated prior to 2Gy irradiation
[5] = treated following 2Gy irradiation

Row | SMILES | surviving fraction ([1]; no irradiation) | surviving fraction [1, 4] | extracellular acidification rate (ECAR), a measure of glycolysis [2] | surviving fraction ([3]; no irradiation) | surviving fraction [3, 5] | surviving fraction [3, 4]
1 | Oc1ccccc1/C=C/c1ccc2ccccc2n1 [11B HCl] | significantly reduce | significantly reduces | significantly reduce | significantly reduce | significantly reduce | significantly reduce
2 | C/C(=C\c1ccccc1O)c1ccc2ccccc2n1.Cl [Compound 11B_CC11_HCl, (E)-2-(2-Quinolin-2-yl-propenyl)-phenol HCl salt] | significantly reduce | – | – | significantly reduce | significantly reduce | significantly reduce
3 | Cl.Oc1ccccc1/C=C\c1ccc2ccccc2n1 [Compound 11B_Z_HCl, (Z)-2-(2-(Quinolin-2-yl)vinyl) phenol HCl salt] | – | – | No changes | – | – | –

Reference: patent US9815788B2, “Anti-angiogenic compounds” (University College Dublin National University of Ireland, …, priority 2012, dated 2017)
